Patent US20110015206A1, “METHOD OF STABILIZING LIPID-RICH PLAQUE AND METHOD OF PREVENTING RUPTURE THEREOF” (KOWA CO., LTD., priority 2003, published 2011)

How the values were obtained:
Type in all cases: in vivo
ApoE knockout mice [1] = assay: Plasma total cholesterol level in ApoE knockout mice with primary hyperlipidemia; details: male ApoE knockout mice, 100 mg/kg orally twice a day for 12 weeks; mean±standard error; control group 641.8±23.0
Description: (§1) Home breeding male ApoE knockout mice, (C57BL/6J-ApoE<tmlUnc>, Jackson Labo™) were bred under common condition, 8 weeks old, were used for test.
(§2) The compound 1 (Example 32, WO98/54153) and control drug, CI-1011 (Example 5, WO 94/26702), were synthesized according to methods described in each publication. The compound 1 and CI-1011 were dissolved (the compound 1) or suspended (CI-1011) in aqueous solution of 0.5% methylcellulose (MC). The solution or suspension was prepared to be a dose of 100 mg/kg and a volume for administration of 0.1 mL/10 g body weight. The control group (no drug administered group) received the solvent, aqueous solution of 0.5% methylcellulose (MC). Prepared drug solution and suspension were administered twice a day, orally, for continuing to 12 weeks (up to 20 weeks old) (total 3 groups, each 15 animal).
After ending the final administration, mice were fasted. In the next morning, mice were laparotomized under pentobarbital sodium anesthesia to expose abdominal vein and collected blood sample 1 mL. The collected blood was centrifuged at 3000 rpm for 15 minutes to collect the plasma. Plasma total cholesterol level was assayed by using cholesterol E-test Wako (cholesterol oxidase DAOS method).
Obtained results are shown in mean±standard error. Test of significance between the control group and the drug-administered group is performed by Dunnett's test.

ApoE knockout mice [2] = assay: Macrophage immunohistochemical staining (anti-CD11b antibody) of aortic sinus plaques; details: male ApoE knockout mice, 100 mg/kg orally twice a day for 12 weeks; compared with control group
Description: as §1
as §2, with “Prepared drug solution and suspension were administered twice a day, orally, for continuing to 12 weeks (up to 20 weeks old) (total 3 groups, each 15 animal).” left out
(§3) After collecting the blood, animals were undergone thoracotomy and 20-G injection needle was punctured into the cardiac apex. […] Using the specimens of Victoria blue-hematoxylin and eosin staining, the internal elastic layer was specified by observation of optical microscope, and the cross-sectional area of the plaques was analyzed (Win ROOF, Mitsuya Shoji K.K.). Similarly, the area of macrophages was measured by using the specimens of macrophage immunohistochemical staining, and a ratio in total area of the plaques (the occupancy rate of macrophages) was calculated. […]

ApoE knockout mice [3] = assay: Azan staining of aortic sinus plaques; details: male ApoE knockout mice, 100 mg/kg orally twice a day for 12 weeks; compared with control group
Description: as §1
as §2, with “Prepared drug solution and suspension were administered twice a day, orally, for continuing to 12 weeks (up to 20 weeks old) (total 3 groups, each 15 animal).” left out
as §3

ApoE knockout mice [4] = assay: Sirius Red staining of collagen in aortic sinus plaques; details: male ApoE knockout mice, 100 mg/kg orally twice a day for 12 weeks; compared with control group
Description: as §1
as §2, with “Prepared drug solution and suspension were administered twice a day, orally, for continuing to 12 weeks (up to 20 weeks old) (total 3 groups, each 15 animal).” left out
as §3

ApoE knockout mice [5] = assay: Cross-sectional area of the plaques in aortic sinus, Victoria blue-hematoxylin and eosin staining; details: male ApoE knockout mice, 100 mg/kg orally twice a day for 12 weeks, mean±standard error, control group 0.23±0.03
Description: as §1
as §2, with “Prepared drug solution and suspension were administered twice a day, orally, for continuing to 12 weeks (up to 20 weeks old) (total 3 groups, each 15 animal).” left out
as §3

Row | Structure (SMILES) | plasma total cholesterol level (ApoE knockout mice [1]) | macrophage immunohistochemical staining (observation) (ApoE knockout mice [2]) | Azan staining, composition of the plaques (observation) (ApoE knockout mice [3]) | Sirius Red staining, collagen fibers (observation) (ApoE knockout mice [4]) | cross-sectional area of the plaques (ApoE knockout mice [5])
1 | CSc1cc(C)nc(SC)c1NC(=O)CN1CCN(CCSc2nc3ccccc3[nH]2)CC1 [compound 1, 2-[4-[2-(benzimidazol-2-ylthio)ethyl]piperazin-1-yl]-N-[2,4-bis(methylthio)-6-methyl-3-pyridyl]acetamide] | 535.0 ± 22.8 mg/dL | the macrophages were occasionally observed | the plaques consisted of small area of cellular components and large numbers of surrounding extracellular matrix | compactly arranged collagen fibers were observed in whole plaques | 0.22±0.03 mm^2
2 | CC(C)c1cc(C(C)C)c(CC(=O)NS(=O)(=O)Oc2c(C(C)C)cccc2C(C)C)c(C(C)C)c1 [CI-1011, avasimibe] | 360.3 ± 19.4 mg/dL | the macrophages were observed abundantly in whole plaques | the plaques consisted largely of red stained macrophage and the blue stained extracellular matrix was scanty | smaller numbers of collagen fibers were observed as compared with the control group | 0.09±0.01 mm^2
